Test results taken from patent publication US20240383908A1, “SYNTHESIS AND APPLICATION OF PHOSPHATASE DEGRADER” (HINOVA PHARMACEUTICALS INC., priority 2021, published 2024).

Biological target: T1, SHP2 protein (Homo sapiens, UniProt Q06124)
T1 sequence (Q06124 1-593): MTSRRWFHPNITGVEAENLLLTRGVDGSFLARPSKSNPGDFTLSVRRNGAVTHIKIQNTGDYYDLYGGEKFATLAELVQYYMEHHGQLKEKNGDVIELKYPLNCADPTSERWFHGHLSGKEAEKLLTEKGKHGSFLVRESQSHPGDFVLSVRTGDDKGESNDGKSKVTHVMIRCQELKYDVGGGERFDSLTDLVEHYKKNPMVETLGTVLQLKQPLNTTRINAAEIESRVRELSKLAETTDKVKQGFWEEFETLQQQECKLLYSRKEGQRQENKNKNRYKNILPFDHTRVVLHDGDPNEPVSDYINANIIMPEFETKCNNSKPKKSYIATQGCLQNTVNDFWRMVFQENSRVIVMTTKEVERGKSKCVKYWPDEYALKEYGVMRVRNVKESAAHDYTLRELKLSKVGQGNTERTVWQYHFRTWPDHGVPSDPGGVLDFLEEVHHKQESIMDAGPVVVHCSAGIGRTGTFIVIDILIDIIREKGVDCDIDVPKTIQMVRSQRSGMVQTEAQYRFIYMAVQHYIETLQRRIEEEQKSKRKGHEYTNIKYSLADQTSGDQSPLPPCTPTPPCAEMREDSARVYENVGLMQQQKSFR
Assay: Degradation activity on SHP2 protein in MV-411 cells (Western blot, DC50)
Format: cell-based
Set-up: endogenous in cells
Conditions: MV411 cells, 24 hours, read-out: Degradation activity for differenct cell lines MV411 (DC50)
Summary of the method: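 MV-411 cells (1×10^6 cells/well, IMDM + 10% FBS) were treated 24 h with compound at 0.1-100 nM final, 0.1% DMSO, duplicates. SHP2 measured by Western blot against GAPDH, band density normalised to DMSO control; DC50 from dose-response fit.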

| Structure (SMILES) | DC50 [nM] |
| --- | --- |
| Cc1ncsc1-c1ccc([C@H](C)NC(=O)[C@@H]2C[C@@H](O)CN2C(=O)[C@@H](NC(=O)c2cnc(N3CCC4(CN(CCCCCCCC(=O)Nc5cccc(Sc6cnc(N7CCC(C)(N)CC7)cn6)c5)C4)C3)nc2)C(C)(C)C)cc1 [Compound 71] | < 100 |
| Cc1ncsc1-c1ccc([C@H](C)NC(=O)[C@@H]2C[C@@H](O)CN2C(=O)[C@@H](NC(=O)c2ccc(N3CCC4(CN(CCCCCOCC(=O)Nc5ccc(Sc6cnc(N7CCC(N)(CF)CC7)cn6)cc5)C4)C3)nn2)C(C)(C)C)cc1 [Compound 122] | < 100 |
| Cc1ncsc1-c1ccc([C@H](C)NC(=O)[C@@H]2C[C@@H](O)CN2C(=O)[C@@H](NC(=O)c2ccc(N3CC[C@H](OCCCCCCCC(=O)Nc4cccc(Sc5cnc(N6CCC(C)(N)CC6)cn5)c4)C3)nn2)C(C)(C)C)cc1 [Compound 101] | < 100 |
| Cc1ncsc1-c1ccc([C@H](C)NC(=O)[C@@H]2C[C@@H](O)CN2C(=O)[C@@H](NC(=O)CCCCCCCCN2CCN(C(=O)C3CC3C(=O)Nc3cccc(Sc4cnc(N5CCC(C)(N)CC5)cn4)c3)CC2)C(C)(C)C)cc1 (stereo partly shown) [Compound 77] | < 100 |
| CC1(N)CCN(c2cnc(Sc3cccc(NC(=O)CCC(=O)NCCOCCOCC(=O)Nc4ccc5c(c4)CN(C4CCC(=O)NC4=O)C5=O)c3)cn2)CC1 (stereo not shown) [Compound 30] | > 1000 |
| CC1(N)CCN(c2cnc(Sc3cccc(NC(=O)CCCCCCCN4CC5(CCN(c6ncc(C(=O)NCc7ccc8c(c7)CN(C7CCC(=O)NC7=O)C8=O)cn6)C5)C4)c3)cn2)CC1 (stereo not shown) [Compound 70] | < 100 |
| CC1(N)CCN(c2cnc(Sc3cccc(NC(=O)CCN4CC5(CCN(c6ccc(C(=O)NCc7ccc8c(c7)CN(C7CCC(=O)NC7=O)C8=O)nn6)C5)C4)c3)cn2)CC1 (stereo not shown) [Compound 97] | > 1000 |
| CN(Cc1ccc2c(c1)CN(C1CCC(=O)NC1=O)C2=O)C(=O)c1ccc(N2CC3CC(OCCCCCCC(=O)Nc4cccc(Sc5cnc(N6CCC(C)(N)CC6)cn5)c4)CC3C2)nn1 (stereo not shown) [Compound 184] | < 100 |
| CC1(N)CCN(c2cnc(Sc3cccc(NC(=O)CCCCCCCCCCCCCCC(=O)NCc4ccc5c(c4)CN(C4CCC(=O)NC4=O)C5=O)c3)cn2)CC1 (stereo not shown) [Compound 42] | > 1000 |
| NC1(CO)CCN(c2cnc(Sc3cccc(NC(=O)CCCCCCCCN4CC=C(c5ccc(C(=O)NCc6ccc7c(c6)CN(C6CCC(=O)NC6=O)C7=O)nn5)CC4)c3)cn2)CC1 (stereo not shown) [Compound 202] | < 100 |
| CC1(N)CCN(c2cnc(Sc3cccc(NC(=O)CCCCCCCN4CC5CN(Cc6ccc(COc7cccc8c7CN(C7CCC(=O)NC7=O)C8=O)cc6)CC5C4)c3)cn2)CC1 (stereo not shown) [Compound 95] | < 100 |
| NC1(CF)CCN(c2cnc(Sc3cccc(NC(=O)CCCCCCCO[C@H]4CCN(c5ccc(C(=O)NCc6ccc7c(c6)CN(C6CCC(=O)NC6=O)C7=O)nn5)C4)c3)cn2)CC1 (stereo partly shown) [Compound 135] | < 100 |
| CN(Cc1ccc2c(c1)CN(C1CCC(=O)NC1=O)C2=O)C(=O)c1ccc(N2CCC(OCCCCCCCC(=O)Nc3cccc(Sc4cnc(N5CCC(C)(N)CC5)cn4)c3)C(F)(F)C2)nn1 (stereo not shown) [Compound 173] | < 100 |
| CC1(CN)CCN(c2cnc(Sc3cccc(NC(=O)CCC(=O)N4CCN(CCCCCCCCC(=O)NCc5ccc6c(c5)CN(C5CCC(=O)NC5=O)C6=O)CC4)c3Cl)cn2)CC1 (stereo not shown) [Compound 15, 9-(4-(4-((3-((5-(4-(aminomethyl)-4-methylpyridin-1-yl)pyrazin-2-yl)thio)-2-chlorophenyl)amino)-4-oxobutyryl)piperazin-1-yl)-N-((2-(2,6-dioxopiperidin-3-yl)-1-oxoisoindol-5-yl)methyl)nonanamide] | < 100 |
| Cc1ncsc1-c1ccc([C@H](C)NC(=O)[C@@H]2C[C@@H](O)CN2C(=O)[C@@H](NC(=O)COCCOCCOCCOCC(=O)Nc2ccc(Sc3cnc(N4CCC(C)(CN)CC4)cn3)c(Cl)c2)C(C)(C)C)cc1 [Compound 7] | 100 to 1000 |
| CC1(CN)CCN(c2cnc(Sc3ccc(NC(=O)COCCOCC(=O)Nc4ccc5c(c4)C(=O)N(C4CCC(=O)NC4=O)C5)cc3Cl)cn2)CC1 (stereo not shown) [Compound 8] | > 1000 |

| Structure (SMILES) | DC50 [nM] |
| --- | --- |
| CC1(N)CCN(c2cnc(Sc3cccc(NC(=O)CCCCCC(=O)N4CC5(CCN(C(=O)[C@@H]6C[C@H]6C(=O)NCc6ccc7c(c6)CN(C6CCC(=O)NC6=O)C7=O)C5)C4)c3)cn2)CC1 (stereo partly shown) [Compound 131] | 100 to 1000 |
| Cc1cc(C(=O)NCc2ccc3c(c2)CN(C2CCC(=O)NC2=O)C3=O)n(C2CCN(CCCCCCCCC(=O)Nc3cccc(Sc4cnc(N5CCC(C)(N)CC5)cn4)c3)CC2)n1 (stereo not shown) [Compound 80] | < 100 |
| CC1(N)CCN(c2cnc(Sc3cccc(NC(=O)CCCCCCN4CC5(CCN(C(=O)/C=C/C(=O)NCc6ccc7c(c6)CN(C6CCC(=O)NC6=O)C7=O)C5)C4)c3)cn2)CC1 (stereo not shown) [Compound 117] | > 1000 |
| CC1(N)CCN(c2cnc(Sc3cccc(NC(=O)CCC(=O)N4CC5(CN(CCCCCCCC(=O)Nc6ccc7c(c6)C(=O)N(C6CCC(=O)NC6=O)C7)C5)C4)c3)cn2)CC1 (stereo not shown) [Compound 26] | > 1000 |
| CC1(N)CCN(c2cnc(Sc3cccc(NC(=O)CCCCCCCOC4CCN(c5ncc(C(=O)Nc6cccc7c6CN(C6CCC(=O)NC6=O)C7=O)cn5)CC4)c3)cn2)CC1 (stereo not shown) [Compound 92] | > 1000 |
| CC1(N)CCN(c2cnc(Sc3cccc(NC(=O)CCC(=O)N4CC5(CN(CCCCCCCC(=O)NCc6ccc7c(c6)CN(C6CCC(=O)NC6=O)C7=O)C5)C4)c3)cn2)CC1 (stereo not shown) [Compound 31] | > 1000 |
| CC1(N)CCN(c2cnc(Sc3cccc(NC(=O)CCC(=O)NCCOCCOCCOCC(=O)NCc4ccc5c(c4)CN(C4CCC(=O)NC4=O)C5=O)c3)cn2)CC1 (stereo not shown) [Compound 21] | > 1000 |
| CC1(N)CCN(c2cnc(Sc3cccc(NC(=O)/C=C/C(=O)N4CC5(CCN(CCCCCCC(=O)NCc6ccc7c(c6)CN(C6CCC(=O)NC6=O)C7=O)C5)C4)c3)cn2)CC1 (stereo not shown) [Compound 150] | > 1000 |
| CC1(CN)CCN(c2cnc(Sc3cccc(NC(=O)CCC(=O)N4CCN(CCCCCCCCC(=O)Nc5ccc6c(c5)CN(C5CCC(=O)NC5=O)C6=O)CC4)c3Cl)cn2)CC1 (stereo not shown) [Compound 14] | < 100 |
| Cc1ncsc1-c1ccc([C@H](C)NC(=O)[C@@H]2C[C@@H](O)CN2C(=O)[C@@H](NC(=O)c2ccc(N3CCN(CCCCCCCCC(=O)Nc4cccc(Sc5cnc(N6CCC(C)(N)CC6)cn5)c4)CC3)nn2)C(C)(C)C)cc1 [Compound 62] | 100 to 1000 |
| CC1(N)CCN(c2cnc(Sc3cccc(NC(=O)[C@@H]4C[C@H]4C(=O)N4CC5(CN(CCCCCCCC(=O)NCc6ccc7c(c6)CN(C6CCC(=O)NC6=O)C7=O)C5)C4)c3)cn2)CC1 (stereo partly shown) [Compound 38] | < 100 |
| CC1(N)CCN(c2cnc(Sc3cccc(NC(=O)CCCCCCCCCCCNc4ccc(C(=O)NCc5ccc6c(c5)CN(C5CCC(=O)NC5=O)C6=O)nn4)c3)cn2)CC1 (stereo not shown) [Compound 195] | 100 to 1000 |
| Cc1ncsc1-c1ccc([C@H](C)NC(=O)[C@@H]2C[C@@H](O)CN2C(=O)[C@@H](NC(=O)c2ccc(N3CC4CN(CCCCCCCC(=O)Nc5cccc(Sc6cnc(N7CCC(C)(N)CC7)cn6)c5)CC4C3)nn2)C(C)(C)C)cc1 (stereo partly shown) [Compound 99] | < 100 |
| C[C@@H]1OCC2(CCN(c3cnc(Sc4cccc(NC(=O)CCN5CC6(CCN(c7ccc(C(=O)NCc8ccc9c(c8)CN(C8CCC(=O)NC8=O)C9=O)nn7)C6)C5)c4)cn3)CC2)[C@@H]1N (stereo partly shown) [Compound 108] | < 100 |
| CN[C@H](C)C(=O)N[C@@H](C(=O)N1C[C@@H](NC(=O)c2cnc(N3CCC4(CN(CCCCC(=O)Nc5cccc(Sc6cnc(N7CCC(N)(CF)CC7)cn6)c5)C4)C3)nc2)C[C@@H]1C(=O)Nc1c(F)cccc1F)C(C)(C)C [Compound 136] | > 1000 |
